{"source": "patent US20250073234A1", "about": "“COMBINATION THERAPIES INCLUDING PARP1 INHIBITORS” (Cornell University, priority 2022, published 2025)", "test_system": "RM1-BoMe3 metastases", "assay": "Caudal artery injection RM1-BoMe3 metastasis model", "assay_type": "in vivo, mouse", "details": "Olaparib 40 mg/kg i.p., 3 weeks", "procedure": "Tissues from indicated mice were isolated, fixed in zinc buffered formalin overnight at 4° C., dehydrated, and embedded in paraffin. Sections (5 μm) were stained with hematoxylin and eosin (H&E). For immunohistochemistry, sections were deparaffinized, rehydrated, and then treated for antigen retrieval. After blocking in Protein Block Serum-Free solutions (DAKO), tissues were incubated with primary antibody overnight at 4° C. followed by incubation with biotinylated secondary antibody. Endogenous peroxidase was quenched in 3% H2O2 in water for 10 minutes at room temperature. Antibodies were visualized with avidin-biotin complex (Vectastain Elite; Vector Laboratories) using diaminobenzidine as the chromogen. Stained sections were analyzed with a Zeiss light microscope supplemented with Zen 3.3 Bule edition software.\nFor the metastasis model, caudal artery injection was performed with 500000 RM1-BoMe3-RFP-Luc prostate cancer epithelial cells in 150 μl of PBS n=10 in 8-week-old C57B16 male mice. After 1-week luciferase was visualized using IVIS to detect signal in the lower limbs and in less frequently in visceral organs, mice with signal were randomly distributed to receive vehicle, n=5, or Olaparib n=5 (40 mg/kg/, 5 days each, i.p.). After 3 weeks, mice were euthanized and ex-vivo IVIS was performed in lower limbs, vertebrae, and visceral organs to detect metastasis sites. Tissues were collected and analyzed histologically.", "data": [{"smiles": "O=C(c1cc(Cc2n[nH]c(=O)c3ccccc23)ccc1F)N1CCN(C(=O)C2CC2)CC1", "note": "[Olaparib]", "values": [{"measurement": "HA deposition in liver metastasis (IHC)", "value": "increased HA deposition in Olaparib-treated liver metastasis"}, {"measurement": "TGFβ signaling in bone metastasis (nuclear pSMAD2)", "value": "increased pSMAD2 staining in bone metastasis"}, {"measurement": "HA deposition in liver metastasis (IHC)", "setting": "listed as Ola", "value": "deposition of HA was observed"}, {"measurement": "TGFβ signaling in bone metastasis (nuclear pSMAD2)", "setting": "listed as Ola", "value": "increased activation of TGFβ signaling"}]}]}
